In patent US20180028681A1, “COMBINATION THERAPY USING A CD19-ADC AND VINCRISTINE” (SEATTLE GENETICS, INC., priority 2015, published 2018):

Columns and labels:
Format in all cases: in vivo, mouse
[1] = test system: ALL patient donor 90811 xenograft; assay: Disease burden (blast cells) in bone marrow, patient-derived ALL xenograft donor 90811; conditions: for Disease Burden in Bone Marrow, CD45/10% Mean: NOD-scid IL2Rγ null mice, dosed at 18% blasts in sentinels, bone marrow counts day 10 post-dose
Excerpt: Establishment of patient-derived xenografts: NOD-scid IL2Rγ null mice were used as hosts for patient-derived xenografts. Twenty-four hours prior to cell implant, mice received 1.0 Gy irradiation using a Radsource 2000 irradiator (Radsource technologies, Suwanee, Ga.). Frozen bone marrow isolates of mononuclear cells from patients with acute lymphoblastic leukemia were obtained from […] (Alameda, Calif.). Cells were thawed in a warm water bath. After thaw, RPMI-1640 media was slowly added to the bone marrow isolate suspension. The cells were washed with PBS and centrifuged to remove DMSO in freezing media. After centrifugation, the cells were suspended in PBS. For, implantation, 3.6×10^6 cells were injected into the tail vein of female NOD-scid IL2Rγ null mice designated as donor, or passage 0 mice. Approximately 7 weeks after implant, mice were euthanized. Bone marrow and spleen were collected using sterile technique. Spleens were mechanically disrupted using a sterile syringe end and mesh filter. Connective tissues from spleens were filtered out using 40um filters. Splenocytes and bone marrow cells were treated with red blood cell buffer lysis (BD lysis buffer, BD biosciences, San Jose, Calif.) for 15 minutes at room temperature. A sample of the cells was utilized for confirmation of engraftment. The percentage of blast cells was determined by the number of CD45 FITC, CD19 PE-Cy.5 (BD Biosciences, San Jose, Calif.) CD10 APC (Biolegend, San Diego, Calif.) triple positive cells via flow cytometry (FACScalibur, BD Biosciences, San Jose, Calif.). The majority of the cells (passage 1) were placed into freezing media (90% Heat inactivated fetal bovine serum and 10% DMSO). Subsequent xenograft experiments utilized passage 1 cells. Cells were implanted in the same manner done for donor mice (passage 0 mice). Starting 14-21 days post implant, 2-3 sentinel mice were euthanized to determine the percentage blast cells in the bone marrow. […] SGN-CD19A and non-specific ADC (also called h00-1269) were administered as a single intraperitoneal injection at 1.0, 3.0, or 10.0 mg/kg dose. Cyclophosphamide at 15 or 30 mg/kg (Baxter, Deefield, Ill.), Vincristine at 0.188 or 0.375 mg/kg (Hospira, Lake Forest, Ill.), and Doxorubicin at 1.24 or 2.475 mg/kg (Pfizer, NY, NY) were combined and administered as a single dose via intravenous injection into the lateral tail vein. Dexamethasone at 7.5 or 15 mg/kg (APP Pharmaceuticals, Schaumberg, Ill.) was given daily via intraperitoneal injection for five days. At pre-determined times post treatment, mice were euthanized for collection of bone marrow and determination of blast cell percentage via flow cytometry.
The response of human patient-derived ALL cells to single agent SGN-CD19A or CVAD was determined in mouse xenograft models. Bone marrow isolates from patients with ALL (donor 06343 and donor 90811) were used to establish xenografts in NOD-scid IL2Rgamma^null mice. After engraftment, patient-derived bone marrow cells were frozen and are referred to as passage 1 cells. Passage 1 cells were implanted into mice and assessed for presence of blast cells (CD45/CD10/CD19 positive cells). […] Mice were given either 1, 3, or 10 mg/kg of SGN-CD19A or 10 mg/kg of a non-specific ADC conjugated to MMAF (also called h00-1269). A maximum tolerated dose (MTD) of CVAD had previously been determined in the same mouse strain. Mice were given either CVAD at the MTD or at 50% of the MTD.
The response of human patient-derived ALL cells to the combination of SGN-CD19A and CVAD was also determined in the mouse xenograft model. Patient samples were engrafted as described above.

NALM-6 = conditions: C.B-17 SCID mice; treatment 7 days post implant; SGN-CD19A single dose 1.0 mg/kg; cyclophosphamide 30, vincristine 0.375, doxorubicin 2.475 mg/kg single iv; dexamethasone 15 mg/kg ip daily x5; survivors sacrificed at 133 days
Procedure: (§1) Establishment of cell line xenografts: NALM-6 (DSMZ, Braunschweig, Germany) and RS4; 11 (ATCC, Manassas, Va.) cell lines were cultured in RPMI 1640 media, supplemented with Heat Inactivated Fetal Bovine serum (10%) and Penicillin/Streptomycin(1%) (Gibco, Grand Island, N.Y.). Cells were maintained in a humidified atmosphere at 37° C. and 5% CO2. For NALM-6 cell implantation, 1.0×10^5 cells in 200 ul PBS were injected into the tail vein of female C.B-17 SCID (Harlan Laboratories, Livermore, Calif.) mice. Mice were randomly assigned to treatment groups and treatment was given seven days post cell implant. For RS4; 11 cell implantation, 1.8×10^6 cells in 200 ul PBS were implanted into the tail vein of female C.B-17 SCID mice. Mice were randomly assigned to treatment groups. Treatment was given one day post cell implant. Treatment in the NALM-6 consisted of a single dose of SGN-CD19A at 1.0 mg/kg; in RS4; 11, SGN-CD19A was given once every four days for four doses at 0.3 mg/kg. Cyclophosphamide, 30 mg/kg (Baxter, Deefield, Ill.), Vincristine, 0.375 mg/kg (Hospira, Lake Forest, Ill.), and Doxorubicin, 2.475 mg/kg (Pfizer, NY, NY) were combined and administered as a single dose via intravenous injection into the lateral tail vein. Dexamethasone, 15 mg/kg (APP Pharmaceuticals, Schaumberg, Ill.), was given daily for five days via intraperitoneal injection. For each xenograft model, mice were monitored daily and body weights were collected at least once per week. Mice were removed from experiment at the onset of clinical disease signs (hind limb weakness, piloerection, hunched posture) or weight loss in excess of 20% of initial body weight.
(§2) Cell line-derived xenografts were used to investigate the median survival time for the combination of SGN-CD19A and CVAD, as well as SGN-CD19A and each of the components of CVAD. Either NALM-6 or Rs4; 11 cells were implanted into CB-17 SCID mice. Ten mice were assigned to each treatment group. […] SGN-CD19A and CVAD were administered at sub-optimal doses. Results are shown in FIGS. 4A and 4B and Tables 1 and 2. […] For the Rs4; 11 experiment, the experiment was terminated on day 154.

RS4; 11 = conditions: C.B-17 SCID mice; treatment 1 day post implant; SGN-CD19A 0.3 mg/kg every four days x4; cyclophosphamide 30, vincristine 0.375, doxorubicin 2.475 mg/kg single iv; dexamethasone 15 mg/kg ip daily x5; terminated day 154
Procedure: as §1, §2

## C[C@@H]1C[C@H]2[C@@H]3CCC4=CC(=O)C=C[C@]4(C)[C@@]3(F)[C@@H](O)C[C@]2(C)[C@@]1(O)C(=O)CO [Dexamethasone]
[1]
  Disease Burden in Bone Marrow, CD45/10% Mean: 91.8%
NALM-6
  Median Survival: 39 days
RS4; 11
  Median Survival: 80 days

## O=P1(N(CCCl)CCCl)NCCCO1 (stereo not shown) [Cyclophosphamide]
[1]
  Disease Burden in Bone Marrow, CD45/10% Mean: 94.4%
NALM-6
  Median Survival: 38 days
RS4; 11
  Median Survival: 58 days

## CC[C@]1(O)C[C@H]2CN(CCc3c([nH]c4ccccc34)[C@@](C(=O)OC)(c3cc4c(cc3OC)N(C=O)[C@H]3[C@@](O)(C(=O)OC)[C@H](OC(C)=O)[C@]5(CC)C=CCN6CC[C@]43[C@@H]65)C2)C1 [Vincristine]
[1]
  Disease Burden in Bone Marrow, CD45/10% Mean: 32.2%
NALM-6
  Median Survival: 47 days
RS4; 11
  Median Survival: 79 days

## COc1cccc2c1C(=O)c1c(O)c3c(c(O)c1C2=O)C[C@@](O)(C(=O)CO)C[C@@H]3O[C@H]1C[C@H](N)[C@H](O)[C@H](C)O1 [Doxorubicin]
[1]
  Disease Burden in Bone Marrow, CD45/10% Mean: 86.7%
NALM-6
  Median Survival: 44 days
RS4; 11
  Median Survival: 62 days

B1: SGN-CD19A: CD19-directed antibody-drug conjugate: humanized antibody hBU12, maleimidocaproyl linker, monomethyl auristatin F (MMAF); average four drugs per antibody (conjugate)
VL: EIVLTQSPATLSLSPGERATLSCSASSSVSYMHWYQQKPGQAPRLLIYDTSKLASGIPARFSGSGSGTDFTLTISSLEPEDVAVYYCFQGSVYPFTFGQGTKLEIKR
VH: QVQLQESGPGLVKPSQTLSLTCTVSGGSISTSGMGVGWIRQHPGKGLEWIGHIWWDDDKRYNPALKSRVTISVDTSKNQFSLKLSSVTAADTAVYYCARMELWSYYFDYWGQGTLVTVSS
[1]
  Disease Burden in Bone Marrow, CD45/10% Mean: 18.2%
[1]; SGN-CD19A 1, 3 or 10 mg/kg, CVAD at MTD or 50% of MTD, FIGS. 2B, 2D
  single agent dose response, blast cells in the bone marrow: decreasing amounts of blast cells in the bone marrow
NALM-6
  Median Survival: 55 days
RS4; 11
  Median Survival: 85 days
